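How tested: cells in 96-well plates exposed to compound for 48 hours at five concentrations. The concentration for 50% growth inhibition is given as GI50.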 Active and inactive are the calls of the source. No stated cut-off is given here; in the data, active = GI50 up to about 1.1 µM and inactive = higher.
How the values were obtained:
Test in all cases: NCI anticancer screen, dose series, 48 h
HL-60 = system: HL-60
OVCAR-5 = system: OVCAR-5
U-251 = system: U-251
SNB-75 = system: SNB-75
UACC-257 = system: UACC-257
IGROV-1 = system: IGROV-1
M14 = system: M14
UO-31 = system: UO-31
OVCAR-3 = system: OVCAR-3
OVCAR-4 = system: OVCAR-4
OVCAR-8 = system: OVCAR-8
SR = system: SR
SF-268 = system: SF-268
Malme-3M = system: Malme-3M
HOP-92 = system: HOP-92
SK-MEL-28 = system: SK-MEL-28
SK-MEL-5 = system: SK-MEL-5
RXF 393 = system: RXF 393

Measured: GI50

CC[N+](CC)(CC)Cc1cc2ccccc2n1C(=O)OC
inactive: HL-60 > 100 µM | OVCAR-5 > 100 µM | U-251 > 100 µM | SNB-75 87.9 µM | UACC-257 > 100 µM | IGROV-1 > 100 µM | M14 > 100 µM | UO-31 > 100 µM | OVCAR-3 70.6 µM | OVCAR-4 > 100 µM | OVCAR-8 > 100 µM | SR > 100 µM | SF-268 > 100 µM | Malme-3M > 100 µM | HOP-92 > 100 µM | SK-MEL-28 > 100 µM | SK-MEL-5 > 100 µM

Cc1cc2c(c(C#N)c1C)NC(=O)C(CC(=O)O)C2=O (stereo not given)
inactive: HL-60 > 100 µM | OVCAR-5 > 100 µM | U-251 > 100 µM | RXF 393 > 100 µM | SNB-75 > 100 µM | UACC-257 > 100 µM | IGROV-1 > 100 µM | M14 > 100 µM | UO-31 > 100 µM | OVCAR-3 > 100 µM | OVCAR-4 > 100 µM | OVCAR-8 > 100 µM | SF-268 > 100 µM | Malme-3M > 100 µM | HOP-92 > 100 µM | SK-MEL-28 > 100 µM | SK-MEL-5 > 100 µM

COC(=O)NN1C(C)=C(C(=O)OC)C2(CCOC2=O)C1(C)O (stereo not given)
inactive: HL-60 > 100 µM | OVCAR-5 > 100 µM | U-251 > 100 µM | UACC-257 > 100 µM | IGROV-1 > 100 µM | M14 > 100 µM | UO-31 > 100 µM | OVCAR-3 > 100 µM | OVCAR-4 > 100 µM | OVCAR-8 > 100 µM | SF-268 > 100 µM | Malme-3M > 100 µM | HOP-92 > 100 µM | SK-MEL-28 > 100 µM

CC(C)N(C(=O)C12C3C4C1C1C2C3C41C(O)C(C)(C)C)C(C)C (stereo not given)
inactive: HL-60 > 50 µM | U-251 > 50 µM | SNB-75 26.2 µM | IGROV-1 > 50 µM | M14 > 50 µM | UO-31 > 50 µM | OVCAR-3 > 50 µM | OVCAR-8 > 50 µM | SR > 50 µM | SF-268 > 50 µM | Malme-3M > 50 µM | HOP-92 34.7 µM | SK-MEL-28 > 50 µM | SK-MEL-5 > 50 µM

N#C/C(N)=N/c1ccccc1
inactive: HL-60 > 100 µM | OVCAR-5 > 100 µM | U-251 > 100 µM | SNB-75 > 100 µM | IGROV-1 > 100 µM | M14 > 100 µM | UO-31 > 100 µM | OVCAR-3 > 100 µM | OVCAR-4 > 100 µM | OVCAR-8 > 100 µM | SR > 100 µM | SF-268 > 100 µM | Malme-3M > 100 µM | HOP-92 > 100 µM | SK-MEL-28 > 100 µM | SK-MEL-5 > 100 µM

CC1(C)O[C@@H](CC/C=C/CO)[C@H](CC/C=C/CO)O1
inactive: HL-60 63.8 µM | OVCAR-5 > 100 µM | U-251 > 100 µM | SNB-75 > 100 µM | UACC-257 > 100 µM | IGROV-1 > 100 µM | M14 > 100 µM | OVCAR-3 > 100 µM | OVCAR-4 > 100 µM | OVCAR-8 > 100 µM | SR 74.6 µM | SF-268 > 100 µM | Malme-3M > 100 µM | HOP-92 > 100 µM | SK-MEL-28 > 100 µM | SK-MEL-5 > 100 µM

C=C1C(=O)c2cc3c(cc2C(c2cc(OC)c(OC)c(OC)c2)[C@@H]1C(=O)O)OCO3 (stereo not given in full)
inactive: U-251 49.9 µM | RXF 393 43.9 µM | SNB-75 20.5 µM | UACC-257 67 µM | IGROV-1 82 µM | M14 28.1 µM | UO-31 58.6 µM | OVCAR-3 23.2 µM | OVCAR-8 > 100 µM | Malme-3M 50.6 µM | HOP-92 15.5 µM | SK-MEL-28 69.7 µM | SK-MEL-5 50.7 µM

CCCCCCCCCCCCCC(=O)CC(=O)c1c(O)cccc1O
inactive: HL-60 20.8 µM | OVCAR-5 46.6 µM | U-251 35.6 µM | RXF 393 > 100 µM | SNB-75 39.5 µM | UACC-257 32.4 µM | IGROV-1 48 µM | M14 44.7 µM | UO-31 32.7 µM | OVCAR-3 18.9 µM | OVCAR-4 33.4 µM | OVCAR-8 44.3 µM | SF-268 61.8 µM | Malme-3M 28.8 µM | HOP-92 22.4 µM | SK-MEL-28 > 100 µM | SK-MEL-5 > 100 µM

O=C(Cn1cc(I)c(C(=O)NCC(O)CO)n1)NCC(O)CO (stereo not given)
inactive: HL-60 > 100 µM | U-251 > 100 µM | RXF 393 > 100 µM | SNB-75 > 100 µM | UACC-257 > 100 µM | IGROV-1 > 100 µM | M14 > 100 µM | UO-31 > 100 µM | OVCAR-3 > 100 µM | OVCAR-4 > 100 µM | OVCAR-8 > 100 µM | SF-268 > 100 µM | Malme-3M > 100 µM | HOP-92 > 100 µM | SK-MEL-28 > 100 µM

O=C(/C=C\c1cccc2ccccc12)c1ccc(F)cc1
inactive: HL-60 20.6 µM | OVCAR-5 16.6 µM | U-251 15.8 µM | SNB-75 30.5 µM | UACC-257 17.6 µM | IGROV-1 15.3 µM | M14 16.2 µM | UO-31 16.7 µM | OVCAR-3 17.1 µM | OVCAR-4 20.1 µM | OVCAR-8 14.8 µM | SF-268 15 µM | Malme-3M 17.7 µM | HOP-92 11.9 µM | SK-MEL-28 13.2 µM | SK-MEL-5 17.8 µM

CCOC(=O)c1cc(/C=C/C(C)=C/C(=O)OC)n(C)c1C
inactive: HL-60 23.9 µM | OVCAR-5 > 100 µM | U-251 > 100 µM | UACC-257 78.2 µM | IGROV-1 > 100 µM | M14 > 100 µM | UO-31 > 100 µM | OVCAR-3 58.3 µM | OVCAR-4 60.7 µM | OVCAR-8 > 100 µM | SF-268 52.4 µM | Malme-3M > 100 µM | HOP-92 > 100 µM | SK-MEL-5 52.1 µM

CCc1cccc(C)c1N1C(=O)C(=O)C(c2nc3ccccc3o2)C(=O)C1=O
inactive: HL-60 > 100 µM | OVCAR-5 > 100 µM | U-251 > 100 µM | SNB-75 45.7 µM | UACC-257 > 100 µM | IGROV-1 > 100 µM | M14 > 100 µM | UO-31 > 100 µM | OVCAR-3 > 100 µM | OVCAR-4 > 100 µM | OVCAR-8 > 100 µM | SR > 100 µM | SF-268 > 100 µM | Malme-3M > 100 µM | HOP-92 > 100 µM | SK-MEL-28 > 100 µM | SK-MEL-5 > 100 µM

O=C(O)CCN(CCCN(CCC(=O)O)CCC(=O)O)CCC(=O)O
inactive: HL-60 > 100 µM | OVCAR-5 > 100 µM | U-251 > 100 µM | SNB-75 74.8 µM | IGROV-1 > 100 µM | M14 > 100 µM | OVCAR-3 > 100 µM | OVCAR-4 > 100 µM | OVCAR-8 > 100 µM | SF-268 > 100 µM | Malme-3M > 100 µM | HOP-92 > 100 µM | SK-MEL-28 > 100 µM | SK-MEL-5 > 100 µM

— ChEMBL document CHEMBL1201862, “PubChem BioAssay data set” (2004)
